In patent US20180271853A1, “Method of Use for Inhibitors of Epidermal Growth Factor Receptor Variant III” (METASTAT, INC., priority 2015, published 2018):

Key:
[1] = target: T1, phosphoY1173-EGFRviii expressed in U87MG tumor cells (Homo sapiens, UniProt P00533, DELINS30-297G); assay: Inhibition of phosphoY1173-EGFRviii in U87MG tumor cells engineered to express EGFR-viii (in-cell ELISA); type: cell-based; settings: for activity against EGFR-viii: FIG. 1
T1 construct: expressed in transfected cells; host or cells: U87MG (ATCC), lentiviral infection, puromycin selection
Experimental: Cells stably expressing EGFR-WT or EGFR-viii were maintained in the presence of 0.5 ug/ml puromycin.
All EGFR inhibitors were purchased from Selleck Chemicals, Houston TX, at a concentration of 10 mM in DMSO. […] Serial dilution of compounds was prepared using DMSO at 100× the final concentration indicated and then diluted in cell media to the final concentration indicated.
Data are expressed as EC50 and were determined using an in-cell ELISA kit (Pierce).

[2] = tested on: tumors expressing EGFR-viii; settings: cited from earlier work; for benefit for GBM in clinical studies: clinical studies evaluating reversible or covalent EGFR inhibitors in GBM
EGFR-viii = EGFR-viii (Homo sapiens, UniProt P00533, DELINS30-297G); settings: Ji, Zhao et al., 2006; Vivanco, Robins et al., 2012; cited from earlier work

For `C=CC(=O)Nc1cccc(Nc2nc(Nc3ccc(N4CCN(C(C)=O)CC4)cc3OC)ncc2C(F)(F)F)c1` [CO-1686], the “activity against EGFR-viii” value [1] was “weak activity”.

In the case of `C=CC(=O)Nc1cccc(Sc2nc(Nc3ccc(N4CCN(C)CC4)cc3)ncc2Cl)c1` [WZ8040], the “activity against EGFR-viii” value [1] is reported as “weak activity”.

`C=CC(=O)Nc1ccc2ncnc(Nc3ccc(OCc4cccc(F)c4)c(Cl)c3)c2c1` [AST-1306] gave an EC50 ([1]; in-cell ELISA, FIG. 1, read-out: EC50 against EGFR-viii) of under 0.05 µM.

For `C=CC(=O)Nc1cccc(Oc2nc(Nc3ccc(N4CCN(C)CC4)cc3)ncc2Cl)c1` [WZ3146], the “activity against EGFR-viii” value [1] was “weak activity”.

For `C#Cc1cccc(Nc2ncnc3cc(OCCOC)c(OCCOC)cc23)c1` [erlotinib], the “benefit for GBM in clinical studies” value [2] is given as “failed to demonstrate significant benefit”.

For `COc1cc2ncnc(Nc3ccc(F)c(Cl)c3)c2cc1NC(=O)/C=C/CN1CCCCC1` [dacomitinib], the “inhibition of EGFR-viii (recent studies)” value (EGFR-viii) is given as “potent inhibitors of EGFR-viii”.

For `CS(=O)(=O)CCNCc1ccc(-c2ccc3ncnc(Nc4ccc(OCc5cccc(F)c5)c(Cl)c4)c3c2)o1` [lapatinib], the “benefit for GBM in clinical studies” value [2] is listed as “failed to demonstrate significant benefit” and the “cancer growth inhibition in clinical studies” value ([2]; clinical studies, GBM) is listed as “insignificant cancer growth inhibition”.
